For 74 compounds, GFP fluorescence, lower = active (kMESF (background-subtracted)) results are on record in PubChem BioAssay AID2740 (NMMLSC, 2010).

A short description of the experiment: TOR pathway RPL19A-GFP modulators, concentration series – cell-based, S. cerevisiae, flow cytometry, MLPCN hits, dose response (AID 2740).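 Note: background is signal of the same compound in parental non-GFP s288c yeast.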 Particulars: S. cerevisiae RPL19A-GFP strain, flow cytometry fluorescence, 3 h; at 33 µM (top of the series).

The structures appear in SMILES notation. “And” between values parts separate entries of the source, which are not always exact repeats. Equal values may be shown once. The source made the active and inactive calls.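 Rule for the calls: active = compounds whose fitted half-maximal concentration for changing the GFP signal is at or below a set limit; inactive = the rest.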

With `Oc1c(I)cc(I)c2cccnc12`, the GFP fluorescence, lower = active (kMESF (background-subtracted)) is 23 (inactive). With `O=C(/C=C/c1ccnc2ccccc12)c1cccs1`, the GFP fluorescence, lower = active (kMESF (background-subtracted)) is 38 (inactive). In the case of `O=C(NC(=S)Nc1ccc2oc(=O)ccc2c1)c1cccc(Cl)c1` it was 37.2 (inactive); in that of `O=C(NC(=S)NNC(=O)c1ccc(Cl)cc1Cl)c1cccnc1`, 18.7 (inactive); in that of `Cc1cc(/C=C2/SC(=S)N(c3cccc(Cl)c3)C2=O)c(C)n1-c1cccnc1`, 42.7 (inactive). The value for `CCCCCCCCCCCCCCCC[n+]1cccc2ccccc21` was 1.36 (inactive); that for `CCOC(=O)CS(=O)(=O)c1nc(-c2ccccc2)cc(C(F)(F)F)n1` was 44.1 (inactive). The value for `COc1ccc(-c2cc(C(F)(F)F)nc(S(C)(=O)=O)n2)cc1` was 44.7 (inactive); that for `N/C(Cc1ccc(Cl)cc1)=N\OC(=O)c1cccc2ccccc12` was 45.3 (inactive); that for `O=c1oc(/C=C/c2ccc([N+](=O)[O-])s2)nc2ccccc12` was 55 (inactive). As for `O=c1c2cnn(-c3ccccc3)c2ncn1Cc1ccco1`, the GFP fluorescence, lower = active (kMESF (background-subtracted)) was 35.6 (inactive).

For `CC(C)(C)C1C/C(=C/c2ccccn2)C(=O)/C(=C/c2ccccn2)C1` (centres undefined), the GFP fluorescence, lower = active (kMESF (background-subtracted)) is 41.4 (inactive).

For `COc1ccccc1-c1nc2s/c(=C\c3cccs3)c(=O)n2n1`, the GFP fluorescence, lower = active (kMESF (background-subtracted)) is 36.9 (inactive). In the case of `O=C1CC(c2ccccc2)=NN1c1nc(-c2ccccc2)cs1` it was 19.4 (inactive).

For the compound `C[n+]1ccc(/C=C/c2c[nH]c3ccccc23)cc1`, the GFP fluorescence, lower = active (kMESF (background-subtracted)) was 53.8 (inactive). On to `CC1=C(C)/C(=N\OS(=O)(=O)c2ccc(C)cc2)C=CC1=O`, for which the GFP fluorescence, lower = active (kMESF (background-subtracted)) was 16.9 (inactive). In the case of `Cc1c(NC2=C(Cl)C(=O)N(c3ccccc3)C2=O)c(=O)n(-c2ccccc2)n1C` it was 43.6 (inactive); in that of `COc1ccc(N=Nc2ccc(O)c3ncccc23)cc1`, 37.9 (inactive); in that of `Cc1ccc(N2C(=O)CC(Sc3ncn[nH]3)C2=O)cc1C` (centres undefined), 49.3 (inactive). In the case of `Cc1[nH]c(-c2ccccn2)nc(=S)c1Cl` it was 30.8 (inactive); in that of `O=C(COc1ccccc1)N1CCN(c2ncnc3c2cnn3-c2ccccc2)CC1`, 37.1 (inactive).

For the compound `N#Cc1c2ccc([N+](=O)[O-])cc2[n+]([O-])n1-c1ccccc1`, the GFP fluorescence, lower = active (kMESF (background-subtracted)) was 51.8 (inactive). In the case of `O=[N+]([O-])c1cc(CN2CCN(c3ccccc3)CC2)c(O)c2ncccc12` it was 45.6 (inactive); in that of `Cc1cc2ccccn2c1C(=O)c1ccc([N+](=O)[O-])o1`, 20.7 (inactive).

As to `Clc1cccc(CN2COc3c(cc(Cl)c4cccnc34)C2)c1`, the GFP fluorescence, lower = active (kMESF (background-subtracted)) is 36.5 (inactive). In the case of `CC(C)C(=O)NC(c1cccs1)c1cc([N+](=O)[O-])c2cccnc2c1O` (centres undefined) it was 31.9 (inactive); in that of `N=C1/C(=C\c2coc3ccccc3c2=O)C(=O)N=C2SC(c3ccncc3)=NN12`, 25.5 (inactive). For the compound `CCCc1cc(=O)oc2cc(C)cc(OCC(=O)NC3CC3)c12`, the GFP fluorescence, lower = active (kMESF (background-subtracted)) is 39 (inactive).

Take `O/C=c1\ccc2cccc3nc(C(F)(F)F)nc1c23`: the GFP fluorescence, lower = active (kMESF (background-subtracted)) was 53.9 (inactive). In the case of `O=C(Nc1ccc(NC(=O)c2cc3ccccc3o2)cc1)c1ccc2c(c1)OCCO2` it was 40.1 (inactive); in that of `COc1ccc(N2C(=O)CC(Sc3ncn[nH]3)C2=O)c(OC)c1` (centres undefined), 42.2 (inactive); in that of `COc1ccc(C(=O)/C=C2/C(=O)Nc3ccccc32)c(OC)c1`, 37.3 (inactive). The value for `Cc1cc(NC(c2ccc(Cl)cc2)c2ccc3cccnc3c2O)no1` (centres undefined) was 39.3 (inactive). In the case of `CCc1cccc2sc(N3CCN(C(=O)c4ccc([N+](=O)[O-])o4)CC3)nc12` it was 11.8 (inactive).

Take `CC(=O)Oc1cccc(N2C(=O)c3cccc4c([N+](=O)[O-])ccc(c34)C2=O)c1`: the GFP fluorescence, lower = active (kMESF (background-subtracted)) was 39.5 (inactive).

Regarding `Cc1[nH][nH]c(=O)c1C(c1ccc(-c2ccc(Cl)cc2)o1)c1c(C)[nH][nH]c1=O`, the GFP fluorescence, lower = active (kMESF (background-subtracted)) is 41.2 (inactive).

In the case of `Clc1cnc(N/N=C/c2cccs2)c(Cl)c1`, the GFP fluorescence, lower = active (kMESF (background-subtracted)) is 43.5 (inactive). In the case of `O=C(OCn1ncc(Br)c(Br)c1=O)c1ccccc1Cl` it was 44.4 (inactive); in that of `O=C(O)c1ccccc1SC1CC(=O)N(c2ccc3c(c2)OCO3)C1=O` (centres undefined), 43.5 (inactive); in that of `CC(=O)Oc1ccc(N2C(=O)C3C4C=CC(O4)C3C2=O)cc1` (centres undefined), 48.8 (inactive).

Regarding `O=C1NC(=O)N(c2ccccc2)C(=O)/C1=C/c1ccc(Sc2ccccc2)o1`, the GFP fluorescence, lower = active (kMESF (background-subtracted)) is 37.1 (inactive). Take `COc1ccc(/C=C2\C(=O)ON=C2c2ccccc2)cc1`: the GFP fluorescence, lower = active (kMESF (background-subtracted)) was 24.9 (inactive). In the case of `CCc1ccc(/C=C/C(=O)c2cc(Br)ccc(=O)c2O)cc1` it was 40.6 (inactive).

With `CC1=NOC(=O)/C1=C\c1ccc(-c2cc(Cl)ccc2Cl)o1`, the GFP fluorescence, lower = active (kMESF (background-subtracted)) is 39 (inactive).

For `Cc1ccc(NC(=O)ON=C2CCCC2)cc1`, the GFP fluorescence, lower = active (kMESF (background-subtracted)) was 39.3 (inactive).

On to `CN(Cc1cnc2nc(N)nc(N)c2n1)c1ccc(C(=O)N[C@@H](CCC(=O)O)C(=O)O)cc1`, for which the GFP fluorescence, lower = active (kMESF (background-subtracted)) was 39.3 (inactive) and 38.8 (inactive).

For the compound `CC(C)Cn1c(=O)c(C(=O)Nc2ccncc2)c(O)c2ccccc21`, the GFP fluorescence, lower = active (kMESF (background-subtracted)) is 5.71 (inactive).

For `CC(=O)N(C1=C(Cl)C(=O)c2ccccc2C1=O)C1CCCCC1`, the GFP fluorescence, lower = active (kMESF (background-subtracted)) was -1.82 (inactive). In the case of `CCOc1ccccc1/C=c1\sc2ncnn2c1=O` it was 30.1 (inactive); in that of `COc1ccc(C(=O)NC(=S)NNC(=O)c2cnccn2)cc1OC`, 38.6 (inactive). On to `COc1ccc(C(=O)/C=C2/C(=O)Nc3ccccc32)cc1`, for which the GFP fluorescence, lower = active (kMESF (background-subtracted)) was 38 (inactive). The value for `Cc1ccc(C(=O)NNC(=S)NC(=O)COc2ccccc2)cc1` was 41.1 (inactive); that for `Cc1ccc(S(=O)(=O)N2CC(C(=O)O)=CC[C@H]2c2ccc(Cl)cc2)cc1` was 37.3 (inactive); that for `CCN(CC)C(=S)SSC(=S)N(CC)CC` was 34.1 (inactive). As to `Cc1[nH]n(-c2ccccc2)c(=O)c1C(c1ccccc1[N+](=O)[O-])C(C#N)C#N` (centres undefined), the GFP fluorescence, lower = active (kMESF (background-subtracted)) was 24.7 (inactive). The value for `Cc1ccc(-c2nc(N)c3c(-c4ccc(C)cc4)nn(C(C)(C)C)c3n2)cc1` was 43.1 (inactive); that for `CC1=C(C)/C(=N\OS(=O)(=O)c2ccccc2)C=CC1=O` was 24.9 (inactive). In the case of `COc1ccc(-c2cc3cc(C(=O)O)ccn3c2C(=O)c2ccccc2)cc1` it was 43.5 (inactive). Regarding `CCOC(=O)CSC1=NC(=O)/C(=C\c2ccc(Cl)cc2)S1`, the GFP fluorescence, lower = active (kMESF (background-subtracted)) is 31.9 (inactive). Turning to `CS(=O)(=O)c1sc(C#N)c2c1C(=O)CC(c1ccccc1)C2` (centres undefined), the GFP fluorescence, lower = active (kMESF (background-subtracted)) was 38.5 (inactive). In the case of `N#Cc1nccnc1S(=O)(=O)c1cccs1` it was 35.5 (inactive). In the case of `COc1cccc2c(=O)c(C(=O)NCc3cccs3)c[nH]c12` it was 40.5 (inactive).

As to `CC[C@H](C)/C=C(C)/C=C/C1=CC2=C(Cl)C(=O)[C@@](C)(OC(C)=O)C(=O)C2=CO1`, the GFP fluorescence, lower = active (kMESF (background-subtracted)) is 4.51 (inactive).

In the case of `O=C1c2ccccc2C(=O)C2OC12` (centres undefined), the GFP fluorescence, lower = active (kMESF (background-subtracted)) was 29.2 (inactive). In the case of `CCc1sc(C(=O)Nc2nc(-c3ccccn3)cs2)cc1C` it was 21.1 (inactive). In the case of `CCOc1ccc(NC2=C(Cl)C(=O)N(Cc3ccccc3)C2=O)cc1` it was 44.3 (inactive). In the case of `COc1ccccc1N=Cc1nc(-c2ccccc2)oc1OC(C)=O` it was 46.8 (inactive); in that of `O=C1ON=C(c2ccccc2)/C1=C/c1ccco1`, 28.4 (inactive). Regarding `O=C(c1ccccc1)c1ccccc1N1C(=O)C=CC1=O`, the GFP fluorescence, lower = active (kMESF (background-subtracted)) was 26 (inactive).

Consider `COc1cc(NC(=O)c2ccc(C)cc2)ccc1NC(=O)c1cc2ccccc2o1`, for which the GFP fluorescence, lower = active (kMESF (background-subtracted)) was 40.8 (inactive). In the case of `Cc1ccnc(N2C(=O)c3cccc4c([N+](=O)[O-])ccc(c34)C2=O)c1` it was 56.1 (inactive); in that of `CC(C)[C@@]1(c2ccc(Cl)cc2)ON(c2ccccc2C(F)(F)F)C1=O`, 39.1 (inactive). The value for `CCCOc1ccc(C(=O)NNC(=S)NC(=O)c2ccco2)cc1` was 51 (inactive); that for `O=C(O)c1cc[c]([Hg][Cl])cc1` was 15.7 (inactive).
